Laboratory results taken from patent publication US11753407B2, “Compounds for treating spinal muscular atrophy” (PTC Therapeutics, Inc., priority 2012, dated 2023).

Experiments:
[1] = system: SMN2 minigene mRNA (SMN2-A minigene) in HEK293H cells; assay: SMN2 minigene mRNA splicing RT-qPCR assay in cultured cells; type: cell-based, human; conditions: Homo sapiens, HEK293-H; concentration increasing full length SMN2 mRNA 1.5-fold relative to vehicle-treated cells; HEK293H cells with SMN2-A minigene, 24 hours, 7-point concentration data; read-out: EC1.5x for production of full length SMN2 mRNA
How it was run: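 Stable SMN2-A minigene HEK293H; cpd 7-pt 3.16-fold series, 200× in DMSO, 24 h, 37 °C, n=2. Lysates → multiplex RT-qPCR (minigene FL + GAPDH), efficiency-corrected ΔΔCt vs vehicle. EC1.5× = 1.5-fold FL mRNA gain.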

[2] = system: Smn protein in SMA patient fibroblast cells (GM03813); assay: Smn protein assay in cultured cells (SMN HTRF); type: cell-based, human; conditions: SMA patient fibroblast cells, 48 hours; for EC1.5x for Smn protein expression: 7-point concentration curve, SMN HTRF, concentration producing 1.5 times Smn protein vs DMSO vehicle control; for maximum fold (Fold) increase of Smn protein: 7-point concentration data, fold relative to vehicle control
How it was run: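 Fibroblasts, SMA patient; 5,000 cells/well; 7-pt curve, 3.16-fold serial dilution; 48 h, 37 °C, 5% CO2; RIPA lysis 1 h RT; anti-SMN d2 + kryptate overnight RT; HTRF 665/620 nm; fold vs DMSO; EC1.5×, max fold.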

SMILES | melting point | EC (1.5-fold increase) [1] | EC1.5x for Smn protein expression [2] | maximum fold (Fold) increase of Smn protein [2]
Cc1cn2cc(-c3cc(=O)n4nc(C5CCNCC5)ccc4n3)ccc2n1 [Compound 692, 2-(2-methylimidazo[1,2-a]pyridin-6-yl)-7-(piperidin-4-yl)-4H-pyrimido[1,2-b]pyridazin-4-one] | 249 to 251 °C | 0.1 to 0.3 µM | *** (an EC1.5× between >0.3 μM and ≤1 μM is indicated by three stars (***)) | ***** (a fold increase >1.65 is indicated by five stars (*****))
CCc1nc(C)cn2nc(-c3cc(=O)n4cc(C5CCN(C6COC(C)(C)OC6)CC5)ccc4n3)cc12 [Compound 693, 7-[1-(2,2-dimethyl-1,3-dioxan-5-yl)piperidin-4-yl]-2-(4-ethyl-6-methylpyrazolo[1,5-a]pyrazin-2-yl)-4H-pyrido[1,2-a]pyrimidin-4-one] | 236 to 238 °C | 1 to 3 µM | ** (an EC1.5× between >1 μM and ≤3 μM is indicated by two stars (**)) | **** (a fold increase between >1.5 and ≤1.65 is indicated by four stars (****))
Cc1cn2cc(-c3cc(=O)n4cc(N5C[C@@H](C)N[C@@H](C)C5)ccc4n3)cc2c(C)n1 [Compound 695, 7-[(3R,5S)-3,5-dimethylpiperazin-1-yl]-2-(1,3-dimethylpyrrolo[1,2-a]pyrazin-7-yl)-4H-pyrido[1,2-a]pyrimidin-4-one] | 254 to 256 °C | < 0.1 µM | **** (an EC1.5x≤0.3 μM is indicated by four stars (****)) | ***** (a fold increase >1.65 is indicated by five stars (*****))
CCc1cc(-c2cc(=O)n3cc(C4CCNCC4)ccc3n2)cn2cc(C)nc12 [Compound 696, 2-(8-ethyl-2-methylimidazo[1,2-a]pyridin-6-yl)-7-(piperidin-4-yl)-4H-pyrido[1,2-a]pyrimidin-4-one] | 221 to 224 °C | < 0.1 µM | **** (an EC1.5x≤0.3 μM is indicated by four stars (****)) | ***** (a fold increase >1.65 is indicated by five stars (*****))
CCc1cc(-c2cc(=O)n3cc(C4CCN(C)CC4)ccc3n2)cn2cc(C)nc12 [Compound 697, 2-(8-ethyl-2-methylimidazo[1,2-a]pyridin-6-yl)-7-(1-methylpiperidin-4-yl)-4H-pyrido[1,2-a]pyrimidin-4-one] | 214 to 218 °C | < 0.1 µM | **** (an EC1.5x≤0.3 μM is indicated by four stars (****)) | ***** (a fold increase >1.65 is indicated by five stars (*****))
CCc1cc(-c2cc(=O)n3cc(C4CCN(CC)CC4)ccc3n2)cn2cc(C)nc12 [Compound 698, 2-(8-ethyl-2-methylimidazo[1,2-a]pyridin-6-yl)-7-(1-ethylpiperidin-4-yl)-4H-pyrido[1,2-a]pyrimidin-4-one] | 196 to 200 °C | < 0.1 µM | **** (an EC1.5x≤0.3 μM is indicated by four stars (****)) | ***** (a fold increase >1.65 is indicated by five stars (*****))
CCc1cc(-c2cc(=O)n3cc(C4CCN(CCO)CC4)ccc3n2)cn2cc(C)nc12 [Compound 699, 2-(8-ethyl-2-methylimidazo[1,2-a]pyridin-6-yl)-7-[1-(2-hydroxyethyl)piperidin-4-yl]-4H-pyrido[1,2-a]pyrimidin-4-one] | 244 to 247 °C | < 0.1 µM | **** (an EC1.5x≤0.3 μM is indicated by four stars (****)) | ***** (a fold increase >1.65 is indicated by five stars (*****))
CCc1cc(-c2cc(=O)n3cc(N4CCN(C)[C@H](C)C4)ccc3n2)cn2cc(C)nc12 [Compound 700, 7-[(3R)-3,4-dimethylpiperazin-1-yl]-2-(8-ethyl-2-methylimidazo[1,2-a]pyridin-6-yl)-4H-pyrido[1,2-a]pyrimidin-4-one] | 217 to 220 °C | < 0.1 µM | **** (an EC1.5x≤0.3 μM is indicated by four stars (****)) | ***** (a fold increase >1.65 is indicated by five stars (*****))
CCc1cc(-c2cc(=O)n3cc(N4CCN(CC)[C@H](C)C4)ccc3n2)cn2cc(C)nc12 [Compound 701, 2-(8-ethyl-2-methylimidazo[1,2-a]pyridin-6-yl)-7-[(3R)-4-ethyl-3-methylpiperazin-1-yl]-4H-pyrido[1,2-a]pyrimidin-4-one] | 179 to 182 °C | < 0.1 µM | **** (an EC1.5x≤0.3 μM is indicated by four stars (****)) | ***** (a fold increase >1.65 is indicated by five stars (*****))
Cc1cn2nc(-c3cc(=O)n4cc(C5CCN(CCO)CC5)cc(C)c4n3)cc2c(C)n1 [Compound 703, 2-(4,6-dimethylpyrazolo[1,5-a]pyrazin-2-yl)-7-[1-(2-hydroxyethyl)piperidin-4-yl]-9-methyl-4H-pyrido[1,2-a]pyrimidin-4-one] | 224 to 233 °C | < 0.1 µM | **** (an EC1.5x≤0.3 μM is indicated by four stars (****)) | ***** (a fold increase >1.65 is indicated by five stars (*****))
Cc1cn2nc(-c3cc(=O)n4cc(C5CCN(C6CCC6)CC5)cc(C)c4n3)cc2c(C)n1 [Compound 704, 7-(1-cyclobutylpiperidin-4-yl)-2-(4,6-dimethylpyrazolo[1,5-a]pyrazin-2-yl)-9-methyl-4H-pyrido[1,2-a]pyrimidin-4-one] | 228 to 237 °C | 0.1 to 0.3 µM | **** (an EC1.5x≤0.3 μM is indicated by four stars (****)) | **** (a fold increase between >1.5 and ≤1.65 is indicated by four stars (****))
Cc1cc(C2CCN(C)CC2)cn2c(=O)cc(-c3ccc4nn(C)cc4c3)nc12 [Compound 705, 9-methyl-2-(2-methyl-2H-indazol-5-yl)-7-(1-methylpiperidin-4-yl)-4H-pyrido[1,2-a]pyrimidin-4-one] | 222 to 227 °C | < 0.1 µM | **** (an EC1.5x≤0.3 μM is indicated by four stars (****)) | ***** (a fold increase >1.65 is indicated by five stars (*****))
Cc1cn2nc(-c3cc(=O)n4cc(N5CCC(C)(N(C)C)CC5)ccc4n3)cc2c(C)n1 [Compound 706, 7-[4-(dimethylamino)-4-methylpiperidin-1-yl]-2-(4,6-dimethylpyrazolo[1,5-a]pyrazin-2-yl)-4H-pyrido[1,2-a]pyrimidin-4-one] | 237 to 239 °C | < 0.1 µM | **** (an EC1.5x≤0.3 μM is indicated by four stars (****)) | ***** (a fold increase >1.65 is indicated by five stars (*****))
CCNC1(C)CCN(c2ccc3nc(-c4cc5c(C)nc(C)cn5n4)cc(=O)n3c2)CC1 [Compound 707, 2-(4,6-dimethylpyrazolo[1,5-a]pyrazin-2-yl)-7-[4-(ethylamino)-4-methylpiperidin-1-yl]-4H-pyrido[1,2-a]pyrimidin-4-one] | 187 to 189 °C | < 0.1 µM | **** (an EC1.5x≤0.3 μM is indicated by four stars (****)) | ***** (a fold increase >1.65 is indicated by five stars (*****))
CCCNC1(C)CCN(c2ccc3nc(-c4cc5c(C)nc(C)cn5n4)cc(=O)n3c2)CC1 [Compound 708, 2-(4,6-dimethylpyrazolo[1,5-a]pyrazin-2-yl)-7-[4-methyl-4-(propylamino)piperidin-1-yl]-4H-pyrido[1,2-a]pyrimidin-4-one] | 181 to 183 °C | < 0.1 µM | **** (an EC1.5x≤0.3 μM is indicated by four stars (****)) | ***** (a fold increase >1.65 is indicated by five stars (*****))
Cc1cn2nc(-c3cc(=O)n4cc(N5CCC(C)(NCCO)CC5)ccc4n3)cc2c(C)n1 [Compound 709, 2-(4,6-dimethylpyrazolo[1,5-a]pyrazin-2-yl)-7-{4-[(2-hydroxyethyl)amino]-4-methylpiperidin-1-yl}-4H-pyrido[1,2-a]pyrimidin-4-one] | 196 to 198 °C | < 0.1 µM | **** (an EC1.5x≤0.3 μM is indicated by four stars (****)) | ***** (a fold increase >1.65 is indicated by five stars (*****))
Cc1cc(C2CCN(C3CCC3)CC2)cn2c(=O)cc(-c3ccc4nn(C)cc4c3)nc12 [Compound 710, 7-(1-cyclobutylpiperidin-4-yl)-9-methyl-2-(2-methyl-2H-indazol-5-yl)-4H-pyrido[1,2-a]pyrimidin-4-one] | 232 to 235 °C | < 0.1 µM | **** (an EC1.5x≤0.3 μM is indicated by four stars (****)) | ***** (a fold increase >1.65 is indicated by five stars (*****))
